Experiment [1] concerns cytosolic LPC. Briefly: Cytosolic LPC concentration in HepG2 cells. The class given is cell-based, human.
Description: LPC concentration in cytosolic supernatants was measured as previously described (Kishimoto T et al. Clin. Biochem. 2002; 35: 411-416).
The test system of experiment [2] is CaCo2 cells. Briefly: Fatty acid influx in CaCo2 cells. The class given is cell-based.
In experiment [3] the test system is retrogradely perfused mouse livers. Description: Single pass [3H]oleate extraction rates in retrogradely perfused mouse livers. Particulars: mice pretreated i.p. 23 mg/kg, 1 h. The class given is in vivo, C57BL/6 mice. As to the method: Twelve-week-old female C57BL/6 mice were injected intraperitoneally with 1 ml UDCA-LPE [ChemCon, Freiburg, Germany] (Chamulitrat W. et al. Hepatology. 2009; 50: 143-154) at 23 mg/kg or phosphate-buffered saline (PBS) as a control with 5% Tween 80. […] Retrograde perfusion of oxygenized 100 µM albumin (A4503, Sigma, Munich, Germany) in PBS was performed at 37°C and a flow rate of 4 ml/min, with the perfusate collected from the opened portal vein (Hoffmann MJ et al. Hepatology. 2012; 55: 1369-1378). After equilibration for 5 min, a 1 ml bolus of 200 µM [3H]oleate (Perkin Elmer, Rodgau, Germany) along with 100 µM [methyl-14 C]albumin (Biotrend, Cologne, Germany) or 100 µM [14C]sucrose (Perkin Elmer) was introduced through the stopcock and the perfusion was allowed to continue for 5 min. Outflow samples were collected every 15 s and single pass extraction rates were determined as previously described (Hoffmann MJ et al. Toxicol. Sciences. 1999; 49: 40-47).

In experiment [4] the target is T1, iPLA2ß (Homo sapiens, UniProt O60733).
T1 construct: PLA2 activity in DRM-PM fractions isolated from HepG2 cells; endogenous in cells; host or cells: HepG2 (DRM-PM fraction)
T1 sequence (O60733 1-806): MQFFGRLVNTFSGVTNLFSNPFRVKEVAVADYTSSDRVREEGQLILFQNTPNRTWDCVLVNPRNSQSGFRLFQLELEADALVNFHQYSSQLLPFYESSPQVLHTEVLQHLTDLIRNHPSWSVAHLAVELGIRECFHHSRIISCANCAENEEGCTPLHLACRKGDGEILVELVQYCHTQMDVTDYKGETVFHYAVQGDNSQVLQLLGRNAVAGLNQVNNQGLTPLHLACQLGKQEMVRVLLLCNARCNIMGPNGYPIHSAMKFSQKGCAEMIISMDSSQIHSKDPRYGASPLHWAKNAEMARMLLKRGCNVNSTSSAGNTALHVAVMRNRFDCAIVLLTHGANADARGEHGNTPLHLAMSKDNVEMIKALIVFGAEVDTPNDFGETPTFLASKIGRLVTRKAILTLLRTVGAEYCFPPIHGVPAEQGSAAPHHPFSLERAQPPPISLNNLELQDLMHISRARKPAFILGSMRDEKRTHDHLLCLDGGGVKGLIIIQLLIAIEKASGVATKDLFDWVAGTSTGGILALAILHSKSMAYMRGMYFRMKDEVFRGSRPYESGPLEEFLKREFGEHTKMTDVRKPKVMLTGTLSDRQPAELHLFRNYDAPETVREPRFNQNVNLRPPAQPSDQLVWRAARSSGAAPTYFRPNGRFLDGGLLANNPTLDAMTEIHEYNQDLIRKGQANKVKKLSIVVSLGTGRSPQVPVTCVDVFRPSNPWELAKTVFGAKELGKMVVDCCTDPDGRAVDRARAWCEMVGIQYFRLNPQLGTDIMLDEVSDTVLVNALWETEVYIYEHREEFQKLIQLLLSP
Description: PLA2 activity in DRM-PM fractions of HepG2 cells. The class given is biochemical. The settings on record: DRM-PM fractions after 1-h treatment; dose-dependent. As to the method: Detergent-resistant PM (DRM-PM) and non-DRM-PM fractions were isolated and characterized as previously described (Pohl J et al. Mol Biol Cell. 2005; 16: 24-31). Subcellular membrane fractions were prepared by centrifugation at 100,000 g for 1 h to obtain homogenate pellets. Nuclear extracts were obtained by centrifugation at 500 g for 5 min. Pellets were washed and resuspended in a buffer solution containing […] (pH 7.4), 100 mM NaCl, and 0.1 mM EDTA (Marzluff WF et al. Meth Cell Biol. 1987; 317-331)). The protein concentration was determined by the Bradford method (Bio- Rad, Munich, Germany).
PLA2 activity (µmoles LPC/mg protein/h) was determined by incubating samples with arachidonoyl thio-PC (62240; Cayman, Tallin, Estonia) for 1 h at 25°C in a Ca2+ -free buffer (Bhat MK et al. Biochim Biophys Act. 1993; 1166: 244-250). The reaction was terminated by adding 5,5-dithio-bis-2-nitrobenzoic acid and the absorbance at 405 nm was measured.

Experiment [5] addresses T2, four-protein fatty acid uptake complex within the DRM-domain of CaCo2 plasma membranes (Homo sapiens, UniProt O60733).
T2 construct: the DRM domains of the plasma membrane were isolated from native CaCo2 cells; endogenous in cells; host or cells: CaCo2
T2 sequence (O60733 1-806): T1 sequence (O60733 1-806)
Briefly: Disintegration of the fatty acid uptake complex in CaCo2 cells. The class given is cell-based. As to the method:
All other experiments were assessed with CaCo2 cells as described in Ex. 1, mutatis mutandis.

We go through one substance from patent publication EP2929785A1, “A PLA inhibitor for inhibition of fat absorption” (PAT GmbH, priority 2014, dated 2015).

With “ursodeoxycholatelysophosphatidylethanolamide [UDCA-LPE]”, in experiment [1] (30 min treatment (Fig. 7), read-out: suppression of cytosolic LPC (IC50)), the IC50 was determined as 47 µM. Further, in experiment [1] (UDCA-LPE 50 µM (Fig. 6), before treatment 8.0 ± 1.3), the “cytosolic LPC” value was determined as 3.5 ± 0.2 µmol/mg protein. In addition, the “apical fatty acid influx” value in experiment [2] (CaCo2 cells cultured 21 days (polarized), pretreatment at the apical site) is “significantly inhibited”. Also, the “inhibition of fatty acid influx” value in experiment [2] (UDCA-LPE 100 µM, 1 h, scrambled siRNA control conditions) is on record as over 50%; in experiment [3] (vs controls) it was 34%. Further, the “fatty acid influx kinetics” value in experiment [2] (preincubation of CaCo2 cells) is reported as “non-competitive inhibition”. Also, the “cumulative proportion of the [3H]oleate extracted” value in experiment [3] (200 µM [3H]oleate:albumin (2:1)) is on record as 0.30 ± 0.03. Moreover, in experiment [4], the PLA2 activity result is reported as “suppression of PLA2 activity”. Besides, in experiment [5], the “minimal concentration for disintegration of the complex” value stood at 50 µM. For the same substance, in experiment [5] (50 µM), the “exposure time for disintegration of the complex” value was found to be 30 min.
